Results: patent US20150203517A1, “Prodrugs of Compounds that Enhance Antifungal Activity and Compositions of Said Prodrugs” (priority 2014, published 2015)
In brackets after ≈: the same amount, converted by molar mass. Structures can show the parent of a compound that is named as a salt. Where two headings read alike, the source gives them in different places.

Experiment: Saline solubility at 1.00 mg/mL and 0.50 mg/mL (with pH by indicator paper)
Format: physicochemical
Conditions: for solubility at 1 h: saline or isotonic, thermodynamic from solid, centrifuged, soluble = no precipitate formed; for pH at 1.00 mg/mL of MGCD290 in saline: final concentration of hydroxamate 1 1.00 mg/mL, pH indicator paper
Procedure: Assays were performed to determine the saline solubility at 1.00 and 0.50 mg/ml and the stability of certain of the prodrug compounds of Examples 1-111. The following procedures were used.
Step 1. Sample preparation. An amount of the compound sample was precisely weighed to correspond to around 5 mg of the hydroxamate of compound 1, taking into account the mass of the leaving group and the salt factor if applicable. The sample was placed in a 16×125 mm glass screw cap tube. Saline was added so that the final concentration of hydroxamate 1 was 1.00 mg/mL. The pH was measured with pH indicator paper. The tube was shaken for 1 hour on a Vortex apparatus then centrifuged at 3000 rpm (1800 rcf) for 5 minutes. If the compound example was soluble (no precipitate formed) the procedure continued to step 2. If a precipitate formed then the sample was diluted with saline so that the final concentration of the hydroxamate of compound 1 was 0.50 mg/mL, and the shaking and centrifuging steps were repeated. If the compound example was soluble (no precipitate formed) the procedure continued to step 2. If a precipitate formed the sample was discarded. Step 2. HPLC analysis. A 500 μL aliquot of a sample solution prepared according to Step 1 was taken up into a 1.5 mL injection vial to which was added 500 μL of saline. The vial was shaken on a Vortex apparatus, injected into the HPLC instrument (UV detection, zero time point) and the retention time and purity of the sample compound were determined. The injection was repeated after 6 hours and 24 hours, and a comparison was made of the retention time, peak areas and level of degradation (if any) using the GDADI50 method.

[1] = 0.50 mg/mL as hydroxamate 1, shaken 1 hour, read-out: Soluble at 0.5 mg/mL of MGCD290 (Y/N)
[2] = 1.00 mg/mL as hydroxamate 1, shaken 1 hour, read-out: Soluble at 1.00 mg/mL of MGCD290 (Y/N)

Compound | solubility at 1 h [1] | solubility at 1 h [2] | pH at 1.00 mg/mL of MGCD290 in saline
NCCCCCCCC(=O)ONC(=O)Cc1ccc(CCCCc2ccccc2)cc1 [Compound 7, N-(8-aminooctanoyloxy)-2-(4-(4-phenylbutyl)phenyl)acetamide hydrochloride] | < 500 µg/mL | < 1000 µg/mL | –
CN1CCN(C(=O)ONC(=O)Cc2ccc(CCCCc3ccccc3)cc2)CC1.Cl [Compound 45] | < 500 µg/mL | < 1000 µg/mL | 4-4.5
CCCC(CCC)C(=O)ONC(=O)Cc1ccc(CCCCc2ccccc2)cc1 [Compound 50, 2-(4-(4-Phenylbutyl)phenyl)-N-(2-propylpentanoyloxyl)acetamide] | < 500 µg/mL | < 1000 µg/mL | –
O=C(Cc1ccc(CCCCc2ccccc2)cc1)NOC(=O)CCC1CCCC1 [Compound 51] | < 500 µg/mL | < 1000 µg/mL | –
O=C(Cc1ccc(CCCCc2ccccc2)cc1)NOC(=O)CN1C(=O)OC[C@@H]1c1ccccc1 [Compound 52A] | < 500 µg/mL | < 1000 µg/mL | 4.5-5
COCCC(=O)ONC(=O)Cc1ccc(CCCCc2ccccc2)cc1 [Compound 52B] | < 500 µg/mL | < 1000 µg/mL | –
O=C(Cc1ccc(CCCCc2ccccc2)cc1)NOC(=O)CC1CC1 [Compound 52C] | < 500 µg/mL | < 1000 µg/mL | –
CC(=O)ONC(=O)Cc1ccc(CCCCc2ccccc2)cc1 [Compound 52D] | < 500 µg/mL | < 1000 µg/mL | –
CCC(=O)ONC(=O)Cc1ccc(CCCCc2ccccc2)cc1 [Compound 52E] | < 500 µg/mL | < 1000 µg/mL | –
O=C(Cc1ccc(CCCCc2ccccc2)cc1)NOC(=O)CCC1CCCCC1 [Compound 52] | < 500 µg/mL | < 1000 µg/mL | –
COC(=O)NCC1(C(=O)ONC(=O)Cc2ccc(CCCCc3ccccc3)cc2)CC1 [Compound 53] | < 500 µg/mL | < 1000 µg/mL | 4.5-5
COCCOCCOCC(=O)NCC1(C(=O)ONC(=O)Cc2ccc(CCCCc3ccccc3)cc2)CC1 [Compound 55, 2-(2-(2-Methoxyethoxyl)ethoxy)-N-((1-((2-(4-(4-phenylbutyl)phenyl)acetamidooxy)carbonyl)cyclopropyl)methyl)acetamide] | < 500 µg/mL | < 1000 µg/mL | –
COCCOCCOCCOCCOCC(=O)NCC1(C(=O)ONC(=O)Cc2ccc(CCCCc3ccccc3)cc2)CC1 [Compound 56] | < 500 µg/mL | < 1000 µg/mL | 4.5-5
COCCOCCOCCOCCOCCOCC(=O)NCC1(C(=O)ONC(=O)Cc2ccc(CCCCc3ccccc3)cc2)CC1 [Compound 57] | < 500 µg/mL | < 1000 µg/mL | 4.5-5
COCCOCCOCC(=O)NCCC(=O)ONC(=O)Cc1ccc(CCCCc2ccccc2)cc1 [Compound 60] | < 500 µg/mL | < 1000 µg/mL | 4.5-5
COCCOCCOCCOCCOCC(=O)NCCC(=O)ONC(=O)Cc1ccc(CCCCc2ccccc2)cc1 [Compound 61] | < 500 µg/mL | < 1000 µg/mL | 4.5-5
COCCOCCOCCOCCOCCOCC(=O)NCCC(=O)ONC(=O)Cc1ccc(CCCCc2ccccc2)cc1 [Compound 62] | < 500 µg/mL | < 1000 µg/mL | 4.5-5
CC(=O)NCCCC[C@H](NC(C)=O)C(=O)NCCC(=O)ONC(=O)Cc1ccc(CCCCc2ccccc2)cc1 [Compound 66] | < 500 µg/mL | < 1000 µg/mL | 4.5-5
COCC(=O)NCCCC[C@H](NC(=O)COC)C(=O)NCCC(=O)ONC(=O)Cc1ccc(CCCCc2ccccc2)cc1 [Compound 67] | < 500 µg/mL | < 1000 µg/mL | 4.5-5

Compound | solubility at 1 h [1] | solubility at 1 h [2] | pH at 1.00 mg/mL of MGCD290 in saline
COCCOCCOCCOCCOCC(=O)NCCCC[C@H](NC(=O)COCCOCCOCCOCCOC)C(=O)NCCC(=O)ONC(=O)Cc1ccc(CCCCc2ccccc2)cc1 [Compound 69] | – | > 1000 µg/mL | 4.5-5
COCCOCC(=O)NCCCC[C@H](NC(=O)COCCOC)C(=O)ONC(=O)Cc1ccc(CCCCc2ccccc2)cc1 [Compound 70] | < 500 µg/mL | < 1000 µg/mL | 4.5-5
COCCOCCOCC(=O)NCCCC[C@H](NC(=O)COCCOCCOC)C(=O)ONC(=O)Cc1ccc(CCCCc2ccccc2)cc1 [Compound 71] | < 500 µg/mL | < 1000 µg/mL | 4.5-5
CC(C)NC(=O)ONC(=O)Cc1ccc(CCCCc2ccccc2)cc1 [Compound 73, N-(Isopropylcarbamoyloxy)-2-(4-(4-phenylbutyl)phenyl)acetamide] | < 500 µg/mL | < 1000 µg/mL | 4.5-5
CCNC(=O)ONC(=O)Cc1ccc(CCCCc2ccccc2)cc1 [Compound 74] | < 500 µg/mL | < 1000 µg/mL | 4.5-5
CCOC(=O)CNC(=O)ONC(=O)Cc1ccc(CCCCc2ccccc2)cc1 [Compound 75] | < 500 µg/mL | < 1000 µg/mL | 4.5-5
CC(C)OC(=O)ONC(=O)Cc1ccc(CCCCc2ccccc2)cc1 [Compound 76, N-(isopropoxycarbonyloxy)-2-(4-(4-phenylbutyl)phenyl)acetamide] | < 500 µg/mL | < 1000 µg/mL | 4.5-5
COCCOCCOCCNC(=O)NCCC(=O)NCC1(C(=O)ONC(=O)Cc2ccc(CCCCc3ccccc3)cc2)CC1 [Compound 79, N-1-(2-(2-(2-Methoxyethoxyl)ethoxy)ethyl)-N-3-(2-(1-((2-(4-(4-phenylbutyl)phenyl)acetamidooxy)carbonylcyclopropyl)methyl)carbamoylethyl)urea] | < 500 µg/mL | < 1000 µg/mL | 4.5-5
COCCOCCOCCOCCOCC(=O)N1CCN(C(=O)ONC(=O)Cc2ccc(CCCCc3ccccc3)cc2)CC1 [Compound 81] | – | > 1000 µg/mL | 4.5-5
COCCOCCOCCOCCOCCOCC(=O)N1CCN(C(=O)ONC(=O)Cc2ccc(CCCCc3ccccc3)cc2)CC1 [Compound 82] | – | > 1000 µg/mL | 4.5-5
O=C1COCCOCC(=O)N[C@H](C(=O)NCCC(=O)ONC(=O)Cc2ccc(CCCCc3ccccc3)cc2)CCCCN1 [Compound 83, (S)-6,14-Dioxo-N-(3-oxo-3-(2-(4-(4-phenylbutyl)phenyl)acetamidooxy)propyl)-1,4-dioxa-7,13-diazacyclopentadecane-8-carboxamide] | < 500 µg/mL | < 1000 µg/mL | 4.5-5
O=C1COCCOCCOCC(=O)N[C@H](C(=O)NCCC(=O)ONC(=O)Cc2ccc(CCCCc3ccccc3)cc2)CCCCN1 [Compound 84] | < 500 µg/mL | < 1000 µg/mL | 4.5-5
COCCOCCOCCOCCOCC(=O)NC[C@H](C)C(=O)ONC(=O)Cc1ccc(CCCCc2ccccc2)cc1 [Compound 87, (S)—N-(2-Methyl-3-oxo-3-(2-(4-(4-phenylbutyl)phenyl)acetamidooxy)propyl)-2,5,8,11,14-pentaoxahexadecan-16-amide] | < 500 µg/mL | < 1000 µg/mL | 4.5-5
COCCOCCOCCOCCOCC(=O)N[C@@H](C)CC(=O)ONC(=O)Cc1ccc(CCCCc2ccccc2)cc1 [Compound 88] | < 500 µg/mL | < 1000 µg/mL | 4.5-5
COCCOCCOCC(=O)NCCCC[C@H](NC(=O)COCCOCCOC)C(=O)NC[C@H](C)C(=O)ONC(=O)Cc1ccc(CCCCc2ccccc2)cc1 [Compound 91] | – | > 1000 µg/mL | 4.5-5
COCCOCCOCCNC(=O)CN(CC(=O)NCCOCCOCCOC)C(=O)CCC(=O)ONC(=O)Cc1ccc(CCCCc2ccccc2)cc1 [Compound 95, 4-oxo-N,N-bis (12-oxo-2,5,8-trioxa-11-azatridecan-13-yl)-4-(2-(4-(4-phenylbutyl)phenyl)acetamidooxy)butanamide] | 500 to 1000 µg/mL (≈ 634 to 1270 µM) | < 1000 µg/mL | 4.5-5
COCCOCCOCCOCC(=O)NCCCC[C@H](NC(=O)COCCOCCOCCOC)C(=O)NCCCC(=O)ONC(=O)Cc1ccc(CCCCc2ccccc2)cc1 [Compound 101] | – | > 1000 µg/mL | 4.5-5
COCCOCCOCCOCCOCC(=O)NCCCC[C@H](NC(=O)COCCOCCOCCOCCOC)C(=O)NCCCC(=O)ONC(=O)Cc1ccc(CCCCc2ccccc2)cc1 [Compound 102] | – | > 1000 µg/mL | 4.5-5
COCCOCCOCCOCCOCCOCC(=O)NCCCC[C@H](NC(=O)COCCOCCOCCOCCOCCOC)C(=O)NCCCC(=O)ONC(=O)Cc1ccc(CCCCc2ccccc2)cc1 [Compound 103] | – | > 1000 µg/mL | 4.5-5
